Assay results as given in patent publication US8497241B2, “WNT10-derived peptide and use thereof” (Caregen Co., Ltd., priority 2009, dated 2013).
“Also recorded” adds a separate entry of the source.

Assays:
Ki-67 protein [1] = assay: Ki-67 immunostaining (cell proliferation marker) in keratinocytes; type: cell-based; details: FIG. 4
NIH3T3 fibroblasts = assay: SRB colorimetric assay of cell growth in NIH3T3 fibroblasts; type: cell-based
Protocol: (§1) In order to evaluate three peptides prepared in Preparation Examples 1-2 whether they have similar activities of growth factor, SRB (Sulforhodamine B; Sigma-Aldrich) colorimetric assay was carried out using HaCaT kerationcytes (Korean Cell Line Bank) and NIH3T3 fibroblasts (Korean Cell Line Bank) according to Rizzino et al. method (Rizzino, et al. Cancer Res., 48: 4266 (1988)).
(§2) HaCaT ketatinocytes and NIH3T3 fibroblasts were cultured in 250 ml-flasks containing EMEM (Eagle's minimal essential media; Gibco, USA) supplemented with 10% FBS (fetal bovine serum; Sigma). Cells cultured were treated with 1% trypsin solution to detach cells from the bottom of culture flasks and centrifuged to collect cell pellets. After cells were resuspended in EMEM not containing FBS, its aliquot (3×10^3 cells) was added to each well of 96-well plates and cultured under 5% CO2 for 24 hr at 37° C. After 24-hr culture, the medium was changed with a fresh medium without serum and cells were incubated with empty sample (for normalization), three peptides synthesized (1 ng/ml, 10 ng/ml, 100 ng/ml, 1 μg/ml and 10 μg/ml) and peptide complex (1 μg/ml) aseptically dissolved in 10% DMSO for 72 hr under the same conditions as described above. […] In addition, absorbance at 590 nm was measured to analyze cell viability. […]

β-catenin [2] = assay: Western blot of β-catenin in HaCaT keratinocytes; type: cell-based; details: FIG. 6a; for expression level of β-catenin: 5 hr, single treatment; for β-catenin expression in the presence of DKK-1: treatment with both DKK-1 and peptide
Protocol: (§3) HaCaT kerationcytes cultured for 48 hr were incubated with the peptides synthesized in preparation Example 1 for 5 hr. The expression level of β-catenin was examined, which is an essential signal molecule to promote hair growth as a representative signaling of WNT protein. The amount of β-catenin was measured by Western blot analysis using an antibody against β-catenin (SantaCruz, USA). In addition, it was observed by an immunohistochemical assay using the same whether β-catenin is translocated into a nucleus. […] Besides, […] activities were also observed in cytosol as β-catenin is still present in cytosol (FIG. 6b).

fibronectin = assay: Fibronectin ELISA in NIH3T3 fibroblasts; type: cell-based; details: NIH3T3, FIG. 9b
Protocol: To verify whether the peptides synthesized in preparation Example 1 enhances the expression of fibronectin as a WNT target protein, NIH3T3 fibroblasts (4×10^3 cells) was added to each well of 96-well plates and cultured under 5% CO2 for 24 hr at 37° C. After 24-hr culture, the medium was changed with a fresh medium without serum and cells were treated with empty sample (for normalization), three peptides synthesized (1 μg/ml) and peptide complex (1 μg/ml) aseptically dissolved in 10% DMSO for 3 hr, 10 hr, 24 hr or 48 hr under the same conditions as described above. After 72 hr incubation, the cell culture was collected and the expression level of fibronectin was measured using Fibronectin ELISA kit (R&D systems, USA).

β-catenin [3] = assay: Immunohistochemical assay of β-catenin translocation into nucleus in HaCaT keratinocytes; type: cell-based; details: FIG. 6b
Protocol: as §3

HaCaT kerationcytes = assay: SRB colorimetric assay of cell growth in HaCaT keratinocytes; type: cell-based; details: 72 hr
Protocol: as §1, §2

C57BL/6 mouse = assay: Mouse hair growth, topical nanosome on back skin; type: in vivo; details: twice every day
From the text: The peptide synthesized in Preparation Example 1 was formulated into nanosome. Afterwards, the back of C57BL/6 mouse was partially removed and then the skin was topically administered with the nanosome twice every day for 15 days.

[4] = system: Hair follicle of Balb/C mouse; assay: Mouse hair follicle culture, H&E staining; type: cell-based; details: 5 days culture, FIG. 13a
Protocol: Hair follicle of Balb/C mouse hair was dissected with a surgical mess and washed with ethanol, followed by additionally washing with PBS and DMEM culture solution. Hereafter, hair follicles were incubated with 5 μg/ml of each peptide complex dissolved in DMEM culture solution, and cultured under 5% CO2 for 5 days at 37° C. After 5 days-culture, hair follicles were prepared as a paraffin block and each tissue treated with control, peptide complex, DKK-1, and DKK-1 and peptide complex was stained and compared using H&E staining (FIGS. 13a-13d).

WNT protein = assay: Mouse hair follicle culture, WNT protein immunostaining; type: cell-based; details: 5 days culture, FIG. 13c
β-catenin [5] = assay: Mouse hair follicle culture, β-catenin immunostaining; type: cell-based; details: 5 days culture, FIG. 13b
Ki-67 protein [6] = assay: Mouse hair follicle culture, Ki-67 immunostaining; type: cell-based; details: 5 days culture, FIG. 13d

H-RQTRVQRCHC-OH (cysteine pairing not given here) [the peptide of the present invention]
expression of Ki-67 protein in keratinocytes (Ki-67 protein [1]): remarkably enhanced
proliferation and cell shape under a microscope, fibroblasts (NIH3T3 fibroblasts; 72 hr, FIG. 3): promotes proliferation of keratinocytes and fibroblasts, and changes their morphological shapes
growth of fibroblasts (NIH3T3 fibroblasts; NIH3T3, 72 hr, 1 ng/ml to 10 μg/ml, FIG. 2b): notably increases the growth
expression level of β-catenin (β-catenin [2]; FIG. 8): significantly elevated
expression level of β-catenin (β-catenin [2]; FIG. 8, listed as the present peptide): enhancement of β-catenin expression; also recorded: induces elevated activity of β-catenin
β-catenin expression in the presence of DKK-1 (β-catenin [2]): β-catenin activity is observed
β-catenin expression in the presence of DKK-1 (β-catenin [2]; listed as the present peptide): re-increase of the expression of β-catenin; also recorded: restored and enhanced
expression level of fibronectin in treatment with both DKK-1 and peptide (fibronectin; listed as the present peptide): restored and enhanced; also recorded: recovered
translocation of β-catenin to nucleus / β-catenin activity by immunostaining (β-catenin [3]): elevated activity of β-catenin
translocation of β-catenin to nucleus / β-catenin activity by immunostaining (β-catenin [3]; listed as the present peptide): contributes to translocation of β-catenin from cytosol to nucleus
proliferation and cell shape under a microscope, keratinocytes (HaCaT kerationcytes; FIG. 3): promotes proliferation of keratinocytes and fibroblasts, and changes their morphological shapes
growth of keratinocytes (HaCaT kerationcytes; HaCaT, 1 ng/ml to 10 μg/ml, FIG. 2a): notably increases the growth of keratinocytes
hair growth on mouse back skin at 9 days-treatment (C57BL/6 mouse; C57BL/6): growing hair was observed
amount of hair in mouse back skin at 15 days-treatment compared with control group (C57BL/6 mouse; C57BL/6, FIG. 12): much significantly enhanced

DKK-1: a WNT inhibitor and a β-catenin signaling inhibitor, hair loss gene
expression level of β-catenin (β-catenin [2]; FIG. 8): reduced
fibronectin expression, DKK-1 alone (fibronectin): inhibited
hair follicles (H&E), single treatment [4]: degenerated
expression of WNT protein in hair follicle, single treatment (WNT protein): inhibited
expression of β-catenin in hair follicle, single treatment (β-catenin [5]): inhibited
expression of Ki-67 protein in hair follicle, single treatment (Ki-67 protein [6]): suppressed
